The text below walks through data of US20060099216A1, “Peptide delivery” (Biovation Limited, priority 1994, published 2006).

This test deals with mouse Sp2/0 cells. Briefly: CTL assay: 51Cr release from target Sp2/0 cells treated with antibody fragments or peptide, with p53 peptide-specific CTLs. As to conditions: Sp2/0 target cells, treated 4 hours at 37° C. with antibody fragment dilutions or 10 μg/ml peptide. The test is classed as cell-based.

For the sequence “KYICNSSCM (p53 CTL reactive peptide) [p53 peptide only]”, the “% Specific 51Cr Release at E/T Ratio 5:1” value (effector:target 5:1) is recorded as 41%. The “% Specific 51Cr Release at E/T Ratio 10:1” value (effector:target 10:1) is recorded as 57%. In addition, the “% Specific 51Cr Release at E/T Ratio 20:1” value (effector:target 20:1) came to 46%.
